Test system: mosquito larvae
Assay: Comparison tests of cyromazine for larvicidal activity
Format: in vivo
Settings: 0.5 g/m^2 of cyromazine; after 3 days
Procedure: Tests with cyromazine, an insect growth regulator produced by Novartis, was tested for larvicidal activity, either as such or in encapsulated form An effective concentration of 0.5 g/m^2 of cyromazine gave 60% mortality after 3 days, and the best sustained-release formulation gave. 100% mortality after 8 days.

## Nc1nc(N)nc(NC2CC2)n1 [cyromazine]
  mortality: 60%
